These results are taken from US9695155B2, “Herbicidal substituted pyrimidinyloxy benzene compounds” (E. I. DU PONT DE NEMOURS AND COMPANY, priority 2013, dated 2017).

The subject of test [1] is cocklebur. The experiment in a line: Test E preemergence. The format is in vivo, Xanthium strumarium. The settings on record: for Cocklebur plant response rating: scale 0 to 100 (0 no effect, 100 complete control); for Plant response rating, Cocklebur: scale 0 to 100, 0 no effect, 100 complete control. An excerpt:
(§1) Seeds of plant species selected from corn (Zea mays), soybean (Glycine max), velvetleaf (Abutilon theophrasti), lambsquarters (Chenopodium album), wild poinsettia (Euphorbia heterophylla), palmer pigweed (Amaranthus palmeri), waterhemp (common waterhemp, Amaranthus rudis), surinam grass (Brachiaria decumbens), large (Lg) crabgrass (Digitaria sanguinalis), Brazilian crabgrass (Digitaria horizontalis), fall panicum (Panicum dichotomiflorum), giant foxtail (Setaria faberii), green foxtail (Setaria viridis), goosegrass (Eleusine indica), johnsongrass (Sorghum halepense), ragweed (common ragweed, Ambrosia elatior), barnyardgrass (Echinochloa crus-galli), sandbur (southern sandbur, Cenchrus echinatus), arrowleaf sida (Sida rhombifolia), Italian ryegrass (Lolium multiflorum), dayflower (Virginia (VA) dayflower, Commelina virginica), field bindweed (Convolvulus arvensis), morningglory (Ipomoea coccinea), nightshade (eastern black nightshade, Solanum ptycanthum), kochia (Kochia scoparia), yellow nutsedge (Cyperus esculentus), cocklebur (common cocklebur, Xanthium strumarium), smartweed (ladysthumb smartweed, and hairy beggarticks (Bidens pilosa), were planted into a silt loam soil and treated preemergence with test chemicals formulated in a non-phytotoxic solvent mixture which included a surfactant.
(§2) At the same time, plants from these crop and weed species and also horseweed (Canada horseweed, Conyza canadensis), waterhemp_RES1, (ALS & Triazine resistant common waterhemp, Amaranthus rudis), and waterhemp_RES2, (ALS & HPPD resistant common waterhemp, Amaranthus rudis) were planted in pots containing Redi-Earth® planting medium (Scotts Company, 14111 Scottslawn Road, Marysville, Ohio 43041) comprising spaghnum peat moss, vermiculite, wetting agent and starter nutrients were treated with postemergence applications of test chemicals formulated in the same manner. Plants ranged in height from 2 to 18 cm for postemergence treatments (1- to 4-leaf stage). Treated plants and controls were maintained in a greenhouse for 14 to 21 days, after which time all species were compared to controls and visually evaluated. Plant response ratings, summarized in Table E, are based on a scale of 0 to 100 where 0 is no effect and 100 is complete control. A dash (-) response means no test result.

Test [2] relates to chickweed. The experiment in a line: Test D preemergence. In kind it is in vivo, Stellaria media. The settings on record: Stellaria media, pre-emergence, scale 0-100, read-out: Plant response rating, Chickweed. The method in brief:
(§3)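 Visual ratings from 0 (no effect) to 100 (complete control) relative to untreated plants were taken 7–21 days after treatment. Chemicals in a surfactant-containing solvent mixture were applied preemergence to seeds in silt loam, or postemergence to plants 2–18 cm tall (1–4 leaves) grown in a peat-based potting medium.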

Test [3] concerns Italian ryegrass. The experiment in a line: Test D preemergence. The format is in vivo, Lolium multiflorum. The note with it: Lolium multiflorum, pre-emergence. An excerpt: Seeds of plant species selected from bluegrass (annual bluegrass, Poa annua), blackgrass (Alopecurus myosuroides), canarygrass (littleseed canarygrass, Phalaris minor), chickweed (common chickweed, Stellaria media), galium (catchweed bedstraw, Galium aparine), bromegrass, downy (downy bromegrass, Bromus tectorum), field poppy (Papaver rhoeas), field violet (Viola arvensis), green foxtail (Setaria viridis), deadnettle (henbit deadnettle, Lamium amplexicaule), Italian ryegrass (Lolium multiflorum), kochia (Kochia scoparia), lambsquarters (Chenopodium album), oilseed rape (Brassica napus), pigweed (Amaranthus retroflexus), chamomile (scentless chamomile, Matricaria inodora), Russian thistle (Salsola kali), speedwell (bird's-eye speedwell, Veronica persica), spring barley (Hordeum vulgare), spring wheat (Triticum aestivum), wild buckwheat (Polygonum convolvulus), wild mustard (Sinapis arvensis), wild oat (Avena fatua), wild radish (Raphanus raphanistrum), windgrass (Apera spica-venti), winter barley (Hordeum vulgare), and winter wheat (Triticum aestivum) were planted into a silt loam soil and treated preemergence with test chemicals formulated in a non-phytotoxic solvent mixture which included a surfactant.
At the same time, these species were planted in pots containing Redi-Earth® planting medium (Scotts Company, 14111 Scottslawn Road, Marysville, Ohio 43041) comprising spaghnum peat moss, vermiculite, wetting agent and starter nutrients and treated with postemergence applications of the test chemicals formulated in the same manner. Plants ranged in height from 2 to 18 cm (1- to 4-leaf stage). Treated plants and controls were maintained in a controlled growth environment for 7 to 21 days after which time all species were compared to controls and visually evaluated. Plant response ratings, summarized in Table D, are based on a scale of 0 to 100 where 0 is no effect and 100 is complete control. A dash (-) response means no test result.

The subject of test [4] is ragweed. The experiment in a line: Test E postemergence. In kind it is in vivo, Ambrosia elatior.
Source text: as §1, §2

For test [5], the system named is wild radish. Put plainly: Test D postemergence. The format is in vivo, Raphanus raphanistrum. The note with it: Raphanus raphanistrum, post-emergence, scale 0 to 100 (0 no effect, 100 complete control), read-out: Plant response rating, Radish, Wild. The method in brief: as §3
For test [6], the system named is sandbur. The experiment in a line: Test F preemergence. The format is in vivo, Cenchrus echinatus. The note with it: 21 days, scale 0 to 100. The method in brief:
(§4)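 Seeds are planted in a blend of loam and sand. Chemicals in a surfactant-containing non-phytotoxic solvent are applied before emergence. After 21 days under greenhouse conditions, plants are compared with controls and scored visually, 0–100.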

Test [7] has as its system mallow. The experiment in a line: Test F preemergence. The settings on record: 21 days, scale 0 to 100. In kind it is in vivo, Malva sylvestris. An excerpt:
Seeds of plant species selected from bermudagrass (Cynodon dactylon), surinam grass (Brachiaria decumbens), large (Lg) crabgrass (Digitaria sanguinalis), crabgrass, naked (naked crabgrass, Digitaria nuda), foxtail, green (green foxtail, Setaria viridis), johnsongrass (Sorghum halepense), kochia (Kochia scoparia), morningglory (pitted morningglory, Ipomoea lacunosa), nutsedge, purple (purple nutsedge, Cyperus rotundus), ragweed (common ragweed, Ambrosia elatior), mustard, black (black mustard, Brassica nigra), guineagrass (Panicum maximum), dallisgrass (Paspalum dilatatum), barnyardgrass (Echinochloa crus-galli), sandbur (southern sandbur, Cenchrus echinatus), sowthistle (common sowthistle, Sonchus oleraceous), Italian ryegrass (Lolium multiflorum), signalgrass (broadleaf signalgrass, Brachiaria platyphylla), dayflower (Virginia (VA) dayflower, Commelina virginica), bluegrass (annual bluegrass, Poa annua), quackgrass (Elytrigia repens), mallow (common mallow, Malva sylvestris), buckwheat, wild (wild buckwheat, Polygonum convolvulus), leafy spurge (Euphorbia esula), chickweed (common chickweed, Stellaria media), wild poinsettia (Euphorbia heterophylla), and pigweed (Amaranthus retroflexus) were planted into a blend of loam soil and sand and treated preemergence with test chemicals formulated in a non-phytotoxic solvent mixture which included a surfactant.
Treated plants and controls were maintained in a greenhouse for 21 days, after which time all species were compared to controls and visually evaluated. Plant response ratings, summarized in Table F, are based on a scale of 0 to 100 where 0 is no effect and 100 is complete control. A dash (-) response means no test result.

For test [8], the system named is bermudagrass. Put plainly: Test F preemergence. In kind it is in vivo, Cynodon dactylon. The note with it: 21 days, scale 0 to 100. The method in brief: as §4
Setting [9] is: Postemergence, 31 g ai/ha, scale 0 to 100.
Setting [10] is: Postemergence, 62 g ai/ha, scale 0 to 100.
[11] abbreviates: Postemergence, 125 g ai/ha, scale 0 to 100.
[12] abbreviates: postemergence, 16 g ai/ha, scale 0 to 100, 0 no effect, 100 complete control.

Turning to `N#Cc1cccc(Oc2ncc(Cl)cn2)c1-n1cc(Cl)cn1` [Compound 72], the “Cocklebur plant response rating” value in test [1] (16 g ai/ha) is listed as 0. Besides, the entries for the “Plant response rating, Cocklebur” value in test [1] (125 g ai/ha) and in test [1] (250 g ai/ha) were 0 and 15, respectively.
In the case of `N#Cc1cccc(Oc2ncc(Cl)cn2)c1-n1cc(Br)cn1` [Compound 52, 2-(4-bromo-1H-pyrazol-1-yl)-3-[(5-chloro-2-pyrimidinyl)oxy]benzonitrile], the pest or weed control at 31 g/ha in test [2] (31 g ai/ha) worked out at 100%; in test [3] (31 g ai/ha, scale 0 (no effect) to 100 (complete control), read-out: Plant response rating, Ryegrass, Italian), 0%; in test [5] (31 g ai/ha), 65%. For the same compound, the pest or weed control at 62 g/ha stood at 100% in test [2] (62 g ai/ha); 0% in test [3] (62 g ai/ha, scale 0-100, read-out: Plant response rating, Ryegrass, Italian); 70% in test [5] (62 g ai/ha). The pest or weed control at 125 g/ha in test [2] (125 g ai/ha) was 100%; in test [3] (125 g ai/ha, scale 0-100, read-out: Plant response rating, Ryegrass, Italian), 5%; in test [5] (125 g ai/ha), 80%. Moreover, the pest or weed control at 250 g/ha in test [2] (250 g ai/ha) is 100%; in test [3] (250 g ai/ha, scale 0-100, read-out: Plant response rating, Ryegrass, Italian) it was 50%; in test [5] (250 g ai/ha), 90%. The “Cocklebur plant response rating” value in test [1] (16 g ai/ha), in test [1] (31 g ai/ha) and in test [1] (62 g ai/ha) was 0 each time. Moreover, the “Plant response rating, Cocklebur” value in test [1] (250 g ai/ha) is listed as 25. For the same compound, the “Plant response rating, Ragweed” value in test [4] (setting [9]) amounted to 50; in test [4] (setting [10]), 55; in test [4] (setting [11]), 60; in test [4] (setting [12]), 40.
As for `N#Cc1cnn(-c2c(C#N)cccc2Oc2ncc(Cl)cn2)c1` [Compound 200], the “Cocklebur plant response rating” value in test [1] (16 g ai/ha) and in test [1] (31 g ai/ha) was 0 in each case. Also, the figures for the “Plant response rating, Cocklebur” value in test [1] (125 g ai/ha) and in test [1] (250 g ai/ha) were 75 and 95, respectively.
In the case of `N#Cc1cccc(Oc2ncc(F)cn2)c1-n1cc(C(F)(F)F)cn1` [Compound 79, 3-[(5-fluoro-2-pyrimidinyl)oxy]-2-[4-(trifluoromethyl)-1H-pyrazol-1-yl]benzonitrile], the “Plant response rating, Sandbur” value in test [6] (16 g ai/ha) was 10; in test [6] (31 g ai/ha), 15; in test [6] (62 g ai/ha), 95; in test [6] (125 g ai/ha) it was 98; in test [6] (250 g ai/ha) it was 100. Besides, the “Plant response rating, Mallow” value is 98 in test [7] (16 g ai/ha); 100 in test [7] (31 g ai/ha); 100 in test [7] (62 g ai/ha); 100 in test [7] (125 g ai/ha); 100 in test [7] (250 g ai/ha). In addition, the “Plant response rating, Bermudagrass” value in test [8] (16 g ai/ha) is 98; in test [8] (31 g ai/ha), 100; in test [8] (62 g ai/ha), 100; in test [8] (125 g ai/ha), 100; in test [8] (250 g ai/ha), 100. Moreover, the “Plant response rating, Ragweed” value is recorded as 40 in test [4] (setting [9]), 50 in test [4] (setting [10]), 60 in test [4] (setting [11]) and 30 in test [4] (setting [12]).
